From US9708318B2, “Bicyclic heterocycles as FGFR4 inhibitors” (Incyte Corporation, priority 2015, dated 2017)

Experiments:
[1] = biological target: FGFR2 (Homo sapiens (Human), UniProt P21802); assay: FGFR Enzymatic Assay (FRET peptide phosphorylation), FGFR2; assay type: biochemical; conditions: pre-incubated for 4 hours
Experimental: (§1) The inhibitor potency of the exemplified compounds was measured in an enzyme assay that measures peptide phosphorylation using FRET measurements to detect product formation. Inhibitors were serially diluted in DMSO and a volume of 0.5 μL was transferred to the wells of a 384-well plate.
(§2) The enzymes were purchased from Millipore or Invitrogen.
(§3) GraphPad prism3 was used to analyze the data.

[2] = biological target: FGFR3 enzyme (Homo sapiens (Human), UniProt P22607); assay: FGFR Enzymatic Assay (FRET peptide phosphorylation), FGFR3; assay type: biochemical; conditions: pre-incubated for 4 hours
FGFR3 enzyme, sequence (P22607 23-806): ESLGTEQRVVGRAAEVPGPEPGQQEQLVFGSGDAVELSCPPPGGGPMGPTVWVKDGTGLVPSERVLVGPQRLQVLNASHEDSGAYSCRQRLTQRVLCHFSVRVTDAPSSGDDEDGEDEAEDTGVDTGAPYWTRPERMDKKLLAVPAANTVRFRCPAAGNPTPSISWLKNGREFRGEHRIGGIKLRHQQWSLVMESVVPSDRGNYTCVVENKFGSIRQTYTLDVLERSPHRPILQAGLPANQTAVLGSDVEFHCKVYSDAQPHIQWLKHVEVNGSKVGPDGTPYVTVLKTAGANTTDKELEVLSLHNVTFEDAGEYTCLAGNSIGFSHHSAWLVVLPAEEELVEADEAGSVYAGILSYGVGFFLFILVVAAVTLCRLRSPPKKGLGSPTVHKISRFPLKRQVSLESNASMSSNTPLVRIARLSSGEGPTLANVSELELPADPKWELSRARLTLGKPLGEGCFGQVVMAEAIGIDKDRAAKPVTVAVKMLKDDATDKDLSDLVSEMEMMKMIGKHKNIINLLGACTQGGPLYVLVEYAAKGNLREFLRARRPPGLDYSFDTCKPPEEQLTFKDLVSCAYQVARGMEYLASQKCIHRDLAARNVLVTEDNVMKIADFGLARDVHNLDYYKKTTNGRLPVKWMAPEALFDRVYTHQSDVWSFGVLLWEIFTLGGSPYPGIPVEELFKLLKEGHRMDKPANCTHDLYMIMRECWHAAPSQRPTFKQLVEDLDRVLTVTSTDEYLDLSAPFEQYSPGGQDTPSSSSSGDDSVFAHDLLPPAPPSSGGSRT
Experimental: as §1, §3

[3] = biological target: FGFR4 (Homo sapiens (Human), UniProt P22455); assay: FGFR Enzymatic Assay (FRET peptide phosphorylation), FGFR4; assay type: biochemical; conditions: pre-incubated for 4 hours
FGFR4, sequence (P22455 22-802): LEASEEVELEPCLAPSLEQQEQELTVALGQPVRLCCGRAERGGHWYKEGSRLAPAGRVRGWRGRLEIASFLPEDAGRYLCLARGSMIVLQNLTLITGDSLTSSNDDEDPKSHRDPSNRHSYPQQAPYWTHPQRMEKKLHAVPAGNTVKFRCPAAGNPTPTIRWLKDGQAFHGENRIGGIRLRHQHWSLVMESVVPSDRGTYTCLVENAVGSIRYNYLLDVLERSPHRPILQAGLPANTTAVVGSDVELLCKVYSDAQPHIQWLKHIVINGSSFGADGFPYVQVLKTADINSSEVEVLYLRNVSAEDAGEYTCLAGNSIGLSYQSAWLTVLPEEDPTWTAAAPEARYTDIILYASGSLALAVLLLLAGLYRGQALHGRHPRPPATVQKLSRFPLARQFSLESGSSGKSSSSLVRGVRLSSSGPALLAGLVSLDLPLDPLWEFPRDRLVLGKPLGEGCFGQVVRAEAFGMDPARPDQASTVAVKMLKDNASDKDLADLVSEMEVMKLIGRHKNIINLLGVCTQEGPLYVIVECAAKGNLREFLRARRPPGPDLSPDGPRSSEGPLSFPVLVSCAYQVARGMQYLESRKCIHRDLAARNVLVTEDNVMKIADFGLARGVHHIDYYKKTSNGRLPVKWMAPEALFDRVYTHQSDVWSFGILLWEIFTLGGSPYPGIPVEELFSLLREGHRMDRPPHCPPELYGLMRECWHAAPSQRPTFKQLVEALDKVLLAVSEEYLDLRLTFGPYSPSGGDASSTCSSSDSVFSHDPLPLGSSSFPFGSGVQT
Experimental: as §1, §2, §3

[4] = biological target: FGFR1 (Homo sapiens (Human), UniProt P11362); assay: FGFR Enzymatic Assay (FRET peptide phosphorylation), FGFR1; conditions: FGFR1 IC50 (nM), pre-incubated for 4 hours
FGFR1, sequence (P11362 22-822): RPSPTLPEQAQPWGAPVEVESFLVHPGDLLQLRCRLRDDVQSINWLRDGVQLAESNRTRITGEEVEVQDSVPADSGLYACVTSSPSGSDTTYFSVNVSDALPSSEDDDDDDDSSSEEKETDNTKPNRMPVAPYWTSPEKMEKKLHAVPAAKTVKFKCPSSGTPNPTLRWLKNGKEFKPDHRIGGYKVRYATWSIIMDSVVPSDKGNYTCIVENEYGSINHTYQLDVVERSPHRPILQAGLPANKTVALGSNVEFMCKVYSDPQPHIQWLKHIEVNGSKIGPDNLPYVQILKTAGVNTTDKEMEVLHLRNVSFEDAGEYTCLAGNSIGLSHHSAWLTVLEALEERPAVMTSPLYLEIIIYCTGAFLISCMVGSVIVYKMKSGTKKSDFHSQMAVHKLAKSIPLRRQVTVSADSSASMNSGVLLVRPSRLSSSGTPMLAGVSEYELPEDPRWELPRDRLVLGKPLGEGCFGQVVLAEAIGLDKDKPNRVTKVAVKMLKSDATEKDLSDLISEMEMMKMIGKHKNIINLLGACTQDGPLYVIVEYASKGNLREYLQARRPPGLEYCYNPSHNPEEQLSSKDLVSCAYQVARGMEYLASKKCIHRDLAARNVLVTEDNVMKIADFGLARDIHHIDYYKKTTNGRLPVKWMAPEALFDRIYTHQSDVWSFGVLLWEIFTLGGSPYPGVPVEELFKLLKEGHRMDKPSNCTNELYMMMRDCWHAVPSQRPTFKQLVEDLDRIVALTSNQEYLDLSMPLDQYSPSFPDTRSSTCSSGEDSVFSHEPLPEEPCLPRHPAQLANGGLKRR

FGFR2, sequence (P21802 22-821): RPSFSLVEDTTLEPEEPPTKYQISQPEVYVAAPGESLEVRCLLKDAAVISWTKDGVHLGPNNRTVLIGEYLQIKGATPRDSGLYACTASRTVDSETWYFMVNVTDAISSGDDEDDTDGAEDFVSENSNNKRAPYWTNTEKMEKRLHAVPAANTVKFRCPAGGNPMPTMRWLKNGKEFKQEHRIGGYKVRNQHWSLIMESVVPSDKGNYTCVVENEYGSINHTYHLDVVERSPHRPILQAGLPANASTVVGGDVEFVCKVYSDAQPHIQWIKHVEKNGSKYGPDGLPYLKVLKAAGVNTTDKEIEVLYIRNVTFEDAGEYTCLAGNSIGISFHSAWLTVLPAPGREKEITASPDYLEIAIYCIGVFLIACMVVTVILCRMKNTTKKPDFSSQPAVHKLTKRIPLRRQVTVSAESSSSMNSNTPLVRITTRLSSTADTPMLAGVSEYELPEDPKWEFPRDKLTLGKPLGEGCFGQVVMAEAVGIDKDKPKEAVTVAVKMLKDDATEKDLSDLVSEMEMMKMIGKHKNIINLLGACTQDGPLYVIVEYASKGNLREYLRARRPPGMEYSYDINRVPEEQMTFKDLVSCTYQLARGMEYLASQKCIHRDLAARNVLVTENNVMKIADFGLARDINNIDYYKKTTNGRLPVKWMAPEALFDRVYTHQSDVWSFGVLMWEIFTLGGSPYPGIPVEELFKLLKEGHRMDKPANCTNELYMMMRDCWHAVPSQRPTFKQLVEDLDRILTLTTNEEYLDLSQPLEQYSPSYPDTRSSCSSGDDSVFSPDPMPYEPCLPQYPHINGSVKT

Q: `COc1cc(OC)c(F)c(N2Cc3cnc(-c4ccc(C5(C#N)CCC5)nc4)cc3N(c3cnn(C)c3)C2=O)c1F` [Example 188, 1-{5-[3-(2,6-difluoro-3,5-dimethoxyphenyl)-1-(1-methyl-1H-pyrazol-4-yl)-2-oxo-1,2,3,4-tetrahydropyrido[4,3-d]pyrimidin-7-yl]pyridin-2-yl}cyclobutanecarbonitrile] was tested. Which IC50 [1] did it give?
A: 0.01 to 0.03 µM

Q: And the “FGFR1/FGFR3 IC50 ratio” value ([2]; FGFR3 selectivity)?
A: >5

Q: And the “FGFR4/FGFR3 IC50 ratio” value ([2]; FGFR3 selectivity)?
A: >5

Q: What about the IC50 ([2]; read-out: FGFR3 IC50) of the same compound?
A: 0.01 to 0.03 µM

Q: What about the IC50 [3] of the same compound?
A: 0.03 to 0.2 µM

Q: What about the IC50 [4] of the same compound?
A: 30 to 200 nM
